# Patent publication US20140193827A1 (TEVA PHARMACEUTICAL INDUSTRIES, LTD., priority 2013, published 2014)
# System: GA-primed murine splenocytes
# Test: ANOVA-based pattern identification method
# Assay type: cell-based, mouse
# Excerpt: We sought to identify probes matching specific patterns of expression across experimental conditions using a technique that referred to as the ANOVA-based Pattern Identification Method.
# To carry out the analysis in a general manner, we computed the 6 p-values required to do pairwise comparisons of all 4 conditions for all probes using the ANOVA1 function in MATLAB. We then identified sets of probes matching the desired pattern. In the example above, probes were identified as being only affected by PG if their 6 pairwise comparison pvalues matched the following pattern (pGA-PG<0.05, pPG-reference standard<0.05, pPG-Medium<0.05, pGAMedium>0.05, pGA-reference standard>0.05, preference standard-Medium>0.05).
# [1] = DOWN IN generic ONLY, group mean
substance,measurement,setting,value
glatiramer acetate [GA],PARP11 expression,[1],5.609
same,PAX6 expression,[1],5.641
same,PCSK2 expression,[1],5.653
same,PDK2 expression,[1],5.937
same,PHIP expression,[1],8.192
same,PMS1 expression,[1],5.806
same,PRICKLE2 expression,[1],5.859
same,PTP4A2 expression,[1],8.952
same,PTPN22 expression,[1],5.804
same,R3HDM1 expression,[1],6.229
same,RAB4A expression,[1],6.851
same,RAB6B expression,[1],5.767
same,RAB27A expression,[1],9.622
same,RBM18 expression,[1],7.292
same,RDH1 expression,[1],5.682
same,RGS19 expression,[1],6.584
same,RHBDF2 expression,[1],6.336
same,RNF17 expression,[1],5.538
same,RNF150 expression,[1],5.93
same,RPL32 expression,[1],13.81
same,RTN3 expression,[1],5.897
same,RgenericRIP1 expression,[1],5.935
same,SCNN1B expression,[1],5.616
same,SEC1 expression,[1],5.75
same,SEMA3E expression,[1],5.601
same,SH3BP2 expression,[1],10.95
same,SOX2 expression,[1],5.674
same,SPCS2 expression,[1],5.97
same,SPDYB expression,[1],5.641
same,SPN expression,[1],5.889
same,SPRR2K expression,[1],5.662
same,STAT4 expression,[1],5.836
same,SVNGR4 expression,[1],5.647
same,SYT10 expression,[1],5.717
same,TATDN3 expression,[1],5.694
same,TCFAP2C expression,[1],5.821
same,TDH expression,[1],5.601
same,TMEFF2 expression,[1],5.65
same,TMEM146 expression,[1],6.132
same,TMPO expression,[1],8.533
same,TRPM1 expression,[1],5.694
same,TRPV3 expression,[1],5.597
same,TSC1 expression,[1],5.984
same,TSSC1 expression,[1],7.729
same,TYKI expression,[1],7.673
same,UGDH expression,[1],5.86
same,UGT2A1 expression,[1],5.61
same,UTX expression,[1],9.817
same,V1RD9 expression,[1],5.697
same,ZAP70 expression,[1],7.106
same,ZBTB44 expression,[1],5.642
same,ZCCHC11 expression,[1],5.935
same,ZFP120 expression,[1],5.536
same,ZFP212 expression,[1],6.401
same,ZSCAN2 expression,[1],5.813
same,control_ILMN_1378612 expression,[1],5.7
same,control_ILMN_1378679 expression,[1],5.604
same,control_ILMN_1378774 expression,[1],5.707
same,control_ILMN_1378775 expression,[1],5.662
same,control_ILMN_1379152 expression,[1],5.629
same,control_ILMN_1379205 expression,[1],5.72
same,genericC expression,[1],5.676
same,USP47 expression,"DOWN IN generic ONLY, group mean, first USP47 line",6.068
same,USP47 expression,"DOWN IN generic ONLY, group mean, second USP47 line",6.377
same,1700025G04RIK expression level,UP IN GA AND REF ONLY,7.268
same,1700027N10RIK expression level,UP IN GA AND REF ONLY,6.448
same,1810013L24RIK expression level,UP IN GA AND REF ONLY,7.658
same,2310016C16RIK expression level,UP IN GA AND REF ONLY,5.823
same,2500002A22RIK expression level,UP IN GA AND REF ONLY,6.674
same,2610017G09RIK expression level,UP IN GA AND REF ONLY,5.839
same,2810008M24RIK expression level,UP IN GA AND REF ONLY,9.714
same,2810410P22RIK expression level,UP IN GA AND REF ONLY,7.979
same,3202002H23RIK expression level,UP IN GA AND REF ONLY,6.527
same,4930404F20RIK expression level,UP IN GA AND REF ONLY,6.759
same,4930422G04RIK expression level,UP IN GA AND REF ONLY,5.79
same,4930539E08RIK expression level,UP IN GA AND REF ONLY,6.255
same,4932413O14RIK expression level,UP IN GA AND REF ONLY,5.732
same,5830457O10RIK expression level,UP IN GA AND REF ONLY,6.825
same,8030402P03RIK expression level,UP IN GA AND REF ONLY,7.776
same,9430077D24RIK expression level,UP IN GA AND REF ONLY,7.091
same,A630098G22RIK expression level,UP IN GA AND REF ONLY,7.124
same,A830083H19RIK expression level,UP IN GA AND REF ONLY,7.635
same,A930014D08RIK expression level,UP IN GA AND REF ONLY,5.703
same,ACTN4 expression level,UP IN GA AND REF ONLY,6.609
same,ALS2CL expression level,UP IN GA AND REF ONLY,7.393
same,AP1B1 expression level,UP IN GA AND REF ONLY,10.95
same,ARHGAP25 expression level,UP IN GA AND REF ONLY,10.16
same,ARL1 expression level,UP IN GA AND REF ONLY,9.913
same,ARL5A expression level,UP IN GA AND REF ONLY,8.028
same,BAT2D expression level,UP IN GA AND REF ONLY,5.932
same,BAZ1B expression level,UP IN GA AND REF ONLY,5.676
same,BCL11B expression level,UP IN GA AND REF ONLY,7.609
same,C130079K02RIK expression level,UP IN GA AND REF ONLY,7.532
same,C920025C15RIK expression level,UP IN GA AND REF ONLY,6.929
same,CBFB expression level,UP IN GA AND REF ONLY,6.648
same,CCR4 expression level,UP IN GA AND REF ONLY,5.821
same,CD226 expression level,UP IN GA AND REF ONLY,6.995
same,CHIC2 expression level,UP IN GA AND REF ONLY,8.484
same,CLCN3 expression level,UP IN GA AND REF ONLY,8.431
same,COX7A1 expression level,UP IN GA AND REF ONLY,7.161
same,CSF1 expression level,UP IN GA AND REF ONLY,5.383
same,CXCR6 expression level,UP IN GA AND REF ONLY,6.834
same,CYB5 expression level,UP IN GA AND REF ONLY,11.21
same,D4ERTD22E expression level,UP IN GA AND REF ONLY,11.37
same,D6WSU163E expression level,UP IN GA AND REF ONLY,6.582
same,D230021E06RIK expression level,UP IN GA AND REF ONLY,7.605
same,D630011N09RIK expression level,UP IN GA AND REF ONLY,5.625
same,D630022O22RIK expression level,UP IN GA AND REF ONLY,6.33
same,DCK expression level,UP IN GA AND REF ONLY,6.716
same,DCUN1D5 expression level,UP IN GA AND REF ONLY,9.535
same,DHX32 expression level,UP IN GA AND REF ONLY,8.979
same,DMBT1 expression level,UP IN GA AND REF ONLY,5.787
same,DTYMK expression level,UP IN GA AND REF ONLY,10.17
same,EG386506 expression level,UP IN GA AND REF ONLY,5.743
same,EG666756 expression level,UP IN GA AND REF ONLY,10.78
same,EIF3B expression level,UP IN GA AND REF ONLY,6.383
same,EIF4E3 expression level,UP IN GA AND REF ONLY,8.882
same,ELAC2 expression level,UP IN GA AND REF ONLY,6.351
same,ELF1 expression level,UP IN GA AND REF ONLY,10.44
same,EP5TI1 expression level,UP IN GA AND REF ONLY,8.281
same,ETS1 expression level,UP IN GA AND REF ONLY,7.811
same,F830048D03RIK expression level,UP IN GA AND REF ONLY,6.799
same,FANCA expression level,UP IN GA AND REF ONLY,5.606
same,FBXO33 expression level,UP IN GA AND REF ONLY,8.898
same,FEM1C expression level,UP IN GA AND REF ONLY,8.076
same,FERD3L expression level,UP IN GA AND REF ONLY,5.887
